Laboratory results: US20220177508A1, “C10-Cyclic Substituted 13-Membered Macrolides and Uses Thereof” (Zikani Therapeutics, Inc., priority 2018, published 2022)
Converted amounts (≈) assume the structure as drawn.

Legend:
Format in all cases: cell-based
S. aureus MP-12 = assay: Broth dilution MIC determination (CLSI), S. aureus MP-12; details: Staphylococcus aureus, MP12; strain MP-12, broth dilution
E. coli MP-4 = assay: Broth dilution MIC determination (CLSI), E. coli MP-4; details: Escherichia coli, MP4; strain MP-4, broth dilution; read-out: MIC E. coli MP-4
K. pneumoniae MP-546 = assay: Broth dilution MIC determination (CLSI), K. pneumoniae MP-546; details: Klebsiella pneumoniae, MP546; strain MP-546, broth dilution
P. aeruginosa MP-3 = assay: Broth dilution MIC determination (CLSI), P. aeruginosa MP-3; details: Pseudomonas aeruginosa, MP3; strain MP-3, broth dilution
A. baumannii MP-15 = assay: Broth dilution MIC determination (CLSI), A. baumannii MP-15; details: Acinetobacter baumannii, MP15; strain MP-15, broth dilution; read-out: MIC A. baumanii MP-15

| MIC (S. aureus MP-12) [µg/mL] | MIC (E. coli MP-4) [µg/mL] | MIC (K. pneumoniae MP-546) [µg/mL] | MIC (P. aeruginosa MP-3) [µg/mL] | MIC (A. baumannii MP-15) [µg/mL] | SMILES |
| --- | --- | --- | --- | --- | --- |
| > 32 | < 4 | 4 to 32 (≈ 6.69 to 53.5 µM) | > 32 | > 32 | CO[C@]1(C)C[C@@H](C)CN(C)[C@H](C2CN(C(C)C)C2)COC(=O)C(C)(C)C(=O)[C@H](C)[C@H]1O[C@@H]1O[C@H](C)C[C@H](N(C)C)[C@H]1O [Compound 35, (3R,6R,8R,9R,10R)-9-(((2S,3R,4S,6R)-4-(dimethylamino)-3-hydroxy-6-methyltetrahydro-2H-pyran-2-yl)oxy)-3-(1-isopropylazetidin-3-yl)-8-methoxy-4,6,8,10,12,12-hexamethyl-1-oxa-4-azacyclotridecane-11,13-dione] |
| > 32 | > 32 | > 32 | > 32 | > 32 | CO[C@]1(C)C[C@@H](C)CN(C(=O)OCc2ccccc2)[C@H](C2CCN(C(C)C)CC2)COC(=O)C(C)(C)C(=O)[C@H](C)[C@H]1O[C@@H]1O[C@H](C)C[C@H](N(C)C)[C@H]1O [Compound 118, Benzyl (3R,6R,8R,9R,10R)-9-(((2S,3R,4S,6R)-4-(dimethylamino)-3-hydroxy-6-methyltetrahydro-2H-pyran-2-yl)oxy)-3-(1-isopropylpiperidin-4-yl)-8-methoxy-6,8,10,12,12-pentamethyl-11,13-dioxo-1-oxa-4-azacyclotridecane-4-carboxylate] |
| > 32 | < 4 | < 4 | > 32 | > 32 | CO[C@]1(C)C[C@@H](C)CN(C)[C@@H](C2CN(C)C2)COC(=O)C(C)(C)C(=O)[C@H](C)[C@H]1O[C@@H]1O[C@H](C)C[C@H](N(C)C)[C@H]1O [Compound 99, (3S,6R,8R,9R,10R)-9-(((2S,3R,4S,6R)-4-(dimethylamino)-3-hydroxy-6-methyltetrahydro-2H-pyran-2-yl)oxy)-8-methoxy-4,6,8,10,12,12-hexamethyl-3-(1-methylazetidin-3-yl)-1-oxa-4-azacyclotridecane-11,13-dione] |
| 4 to 32 (≈ 5.9 to 47.2 µM) | < 4 | 4 to 32 (≈ 5.9 to 47.2 µM) | > 32 | > 32 | CO[C@]1(C)C[C@@H](C)CN(C)[C@H](C2CCN(Cc3nccn3C)CC2)COC(=O)C(C)(C)C(=O)[C@H](C)[C@H]1O[C@@H]1O[C@H](C)C[C@H](N(C)C)[C@H]1O [Compound 179, (3R,6R,8R,9R,10R)-9-(((2S,3R,4S,6R)-4-(dimethylamino)-3-hydroxy-6-methyltetrahydro-2H-pyran-2-yl)oxy)-8-methoxy-4,6,8,10,12,12-hexamethyl-3-(1-((1-methyl-1H-imidazol-2-yl)methyl)piperidin-4-yl)-1-oxa-4-azacyclotridecane-11,13-dione] |
| 4 to 32 (≈ 6.07 to 48.6 µM) | < 4 | < 4 | > 32 | > 32 | CO[C@]1(C)C[C@@H](C)CN(C)[C@@H](C2CCN(C[C@@H](N)CO)CC2)CO[C@@H](O)C(C)(C)C(=O)[C@H](C)[C@H]1O[C@@H]1O[C@H](C)C[C@H](N(C)C)[C@H]1O [Compound 199] |
| > 32 | < 4 | 4 to 32 (≈ 6.54 to 52.3 µM) | > 32 | > 32 | CO[C@]1(C)C[C@@H](C)CN(C)[C@@H](C2CN(CC(C)C)C2)COC(=O)C(C)(C)C(=O)[C@H](C)[C@H]1O[C@@H]1O[C@H](C)C[C@H](N(C)C)[C@H]1O [Compound 81, (3S,6R,8R,9R,10R)-9-(((2S,3R,4S,6R)-4-(dimethylamino)-3-hydroxy-6-methyltetrahydro-2H-pyran-2-yl)oxy)-3-(1-isobutylazetidin-3-yl)-8-methoxy-4,6,8,10,12,12-hexamethyl-1-oxa-4-azacyclotridecane-11,13-dione] |
| > 32 | > 32 | > 32 | > 32 | > 32 | CO[C@]1(C)C[C@@H](C)CN(C)[C@@H]([C@H]2CC[C@H](N(C)C(=O)CN(C)C)CC2)COC(=O)C(C)(C)C(=O)[C@H](C)[C@H]1O[C@@H]1O[C@H](C)C[C@H](N(C)C)[C@H]1O [Compound 82, 2-(dimethylamino)-N-((1S,4r)-4-((3S,6R,8R,9R,10R)-9-(((2S,3R,4S,6R)-4-(dimethylamino)-3-hydroxy-6-methyltetrahydro-2H-pyran-2-yl)oxy)-8-methoxy-4,6,8,10,12,12-hexamethyl-11,13-dioxo-1-oxa-4-azacyclotridecan-3-yl)cyclohexyl)-N-methylacetamide] |

Further lines, the compound ahead of its results:

| SMILES | MIC (S. aureus MP-12) [µg/mL] | MIC (E. coli MP-4) [µg/mL] | MIC (K. pneumoniae MP-546) [µg/mL] | MIC (P. aeruginosa MP-3) [µg/mL] | MIC (A. baumannii MP-15) [µg/mL] |
| --- | --- | --- | --- | --- | --- |
| CO[C@]1(C)C[C@@H](C)CN(C)[C@@H]([C@@H]2CCN(C)C2)COC(=O)C(C)(C)C(=O)[C@H](C)[C@H]1O[C@@H]1O[C@H](C)C[C@H](N(C)C)[C@H]1O [Compound 109, (3S,6R,8R,9R,10R)-9-(((2S,3R,4S,6R)-4-(Dimethylamino)-3-hydroxy-6-methyltetrahydro-2H-pyran-2-yl)oxy)-8-methoxy-4,6,8,10,12,12-hexamethyl-3-((R)-1-methylpyrrolidin-3-yl)-1-oxa-4-azacyclotridecane-11,13-dione] | > 32 | < 4 | < 4 | > 32 | > 32 |
| CCN1C[C@H](C)C[C@@](C)(OC)[C@H](O[C@@H]2O[C@H](C)C[C@H](N(C)C)[C@H]2O)[C@@H](C)C(=O)C(C)(C)C(=O)OC[C@H]1C1CN(CC(C)C)C1 [Compound 70, (3R,6R,8R,9R,10R)-9-(((2S,3R,4S,6R)-4-(dimethylamino)-3-hydroxy-6-methyltetrahydro-2H-pyran-2-yl)oxy)-4-ethyl-3-(1-isobutylazetidin-3-yl)-8-methoxy-6,8,10,12,12-pentamethyl-1-oxa-4-azacyclotridecane-11,13-dione] | 4 to 32 (≈ 6.39 to 51.1 µM) | < 4 | 4 to 32 (≈ 6.39 to 51.1 µM) | > 32 | > 32 |
| CO[C@]1(C)C[C@@H](C)CN(C)[C@H](C2CC3CCC(C2)N3C)COC(=O)C(C)(C)C(=O)[C@H](C)[C@H]1O[C@@H]1O[C@H](C)C[C@H](N(C)C)[C@H]1O (stereo partly drawn) [Compound 129, (3R,6R,8R,9R,10R)-9-(((2S,3R,4S,6R)-4-(dimethylamino)-3-hydroxy-6-methyltetrahydro-2H-pyran-2-yl)oxy)-8-methoxy-4,6,8,10,12,12-hexamethyl-3-(8-methyl-8-azabicyclo[3.2.1]octan-3-yl)-1-oxa-4-azacyclotridecane-11,13-dione] | > 32 | < 4 | 4 to 32 (≈ 6.41 to 51.3 µM) | > 32 | > 32 |
| CO[C@]1(C)C[C@@H](C)CN(C)[C@@H]([C@@H]2CCCN(C)C2)COC(=O)C(C)(C)C(=O)[C@H](C)[C@H]1O[C@@H]1O[C@H](C)C[C@H](N(C)C)[C@H]1O [Compound 23, (3S,6R,8R,9R,10R)-9-(((2S,3R,4S,6R)-4-(dimethylamino)-3-hydroxy-6-methyltetrahydro-2H-pyran-2-yl)oxy)-8-methoxy-4,6,8,10,12,12-hexamethyl-3-((R)-1-methylpiperidin-3-yl)-1-oxa-4-azacyclotridecane-11,13-dione] | > 32 | 4 to 32 (≈ 6.69 to 53.5 µM) | 4 to 32 (≈ 6.69 to 53.5 µM) | > 32 | > 32 |
| CO[C@]1(C)C[C@@H](C)CN(C)[C@H]([C@H]2CCCN(CC(C)C)C2)COC(=O)C(C)(C)C(=O)[C@H](C)[C@H]1O[C@@H]1O[C@H](C)C[C@H](N(C)C)[C@H]1O [Compound 39, (3R,6R,8R,9R,10R)-9-(((2S,3R,4S,6R)-4-(Dimethylamino)-3-hydroxy-6-methyltetrahydro-2H-pyran-2-yl)oxy)-3-((S)-1-isobutylpiperidin-3-yl)-8-methoxy-4,6,8,10,12,12-hexamethyl-1-oxa-4-azacyclotridecane-11,13-dione] | 4 to 32 (≈ 6.25 to 50 µM) | 4 to 32 (≈ 6.25 to 50 µM) | 4 to 32 (≈ 6.25 to 50 µM) | > 32 | > 32 |
| CO[C@]1(C)C[C@@H](C)CN(C)[C@H]([C@H]2CCCN(C)C2)COC(=O)C(C)(C)C(=O)[C@H](C)[C@H]1O[C@@H]1O[C@H](C)C[C@H](N(C)C)[C@H]1O [Compound 171, (3R,6R,8R,9R,10R)-9-(((2S,3R,4S,6R)-4-(dimethylamino)-3-hydroxy-6-methyltetrahydro-2H-pyran-2-yl)oxy)-8-methoxy-4,6,8,10,12,12-hexamethyl-3-((S)-1-methylpiperidin-3-yl)-1-oxa-4-azacyclotridecane-11,13-dione] | > 32 | 4 to 32 (≈ 6.69 to 53.5 µM) | 4 to 32 (≈ 6.69 to 53.5 µM) | > 32 | > 32 |
| CO[C@]1(C)C[C@@H](C)CN(C)[C@H](C2CC3CCC(C2)N3C(C)C)COC(=O)C(C)(C)C(=O)[C@H](C)[C@H]1O[C@@H]1O[C@H](C)C[C@H](N(C)C)[C@H]1O (stereo partly drawn) [Compound 170, (3R,6R,8R,9R,10R)-9-(((2S,3R,4S,6R)-4-(dimethylamino)-3-hydroxy-6-methyltetrahydro-2H-pyran-2-yl)oxy)-3-(8-isopropyl-8-azabicyclo[3.2.1]octan-3-yl)-8-methoxy-4,6,8,10,12,12-hexamethyl-1-oxa-4-azacyclotridecane-11,13-dione] | 4 to 32 (≈ 6.14 to 49.1 µM) | 4 to 32 (≈ 6.14 to 49.1 µM) | 4 to 32 (≈ 6.14 to 49.1 µM) | > 32 | > 32 |
| CCCN1CCC([C@H]2COC(=O)C(C)(C)C(=O)[C@H](C)[C@@H](O[C@@H]3O[C@H](C)C[C@H](N(C)C)[C@H]3O)[C@](C)(OC)C[C@@H](C)CN2C)CC1 [Compound 63, (3S,6R,8R,9R,10R)-9-(((2S,3R,4S,6R)-4-(dimethylamino)-3-hydroxy-6-methyltetrahydro-2H-pyran-2-yl)oxy)-8-methoxy-4,6,8,10,12,12-hexamethyl-3-(1-propylpiperidin-4-yl)-1-oxa-4-azacyclotridecane-11,13-dione] | 4 to 32 (≈ 6.39 to 51.1 µM) | < 4 | < 4 | > 32 | > 32 |
